Key:
[1] = tested on: HEK293; assay: cytotoxicity IC50 (ATP content, uninfected cells); higher = less cytotoxic; conditions: infection: none
[2] = tested on: HEK293; assay: maximal inhibition of ZIKV NS1 production (% inhibition); higher = stronger antiviral effect
Protocol: (§1)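 HEK293 cells in 1536-well plates were pre-treated with compound for 1 h, infected with ZIKV (MOI 1) for 24 h, and NS1 antigen (intra- plus extracellular) was measured by TR-FRET. Confirmation used 11-point 1:3 dilutions, and IC50 and maximal inhibition were fitted in GraphPad Prism.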

[3] = tested on: HEK293; assay: IC50 for inhibition of ZIKV NS1 production
Protocol: as §1

SMILES: CS[C@H]1SC[C@H]2C(=O)N(C)[C@@H](C(C)C)C(=O)OC[C@@H](NC(=O)c3cnc4ccccc4n3)C(=O)N[C@@H](C)C(=O)N(C)[C@@H]1C(=O)N(C)[C@@H](C(C)C)C(=O)OC[C@@H](NC(=O)c1cnc3ccccc3n1)C(=O)N[C@@H](C)C(=O)N2C
- cytotoxicity IC50 [1]: > 100 µM
- maximal inhibition [2]: 98
- IC50 [3]: 0.017 µM

SMILES: COc1cc2nc(N3CCN(C(=O)c4ccco4)CC3)nc(N)c2cc1OC
- cytotoxicity IC50 [1]: 40 µM
- maximal inhibition [2]: 104
- IC50 [3]: 18 µM

SMILES: CC(C)(C)c1cnc(CSc2cnc(NC(=O)C3CCNCC3)s2)o1
- cytotoxicity IC50 [1]: > 100 µM
- maximal inhibition [2]: 93
- IC50 [3]: 1.9 µM

SMILES: OC(c1cc(C(F)(F)F)nc2c(C(F)(F)F)cccc12)C1CCCCN1 (centres undefined)
- cytotoxicity IC50 [1]: > 100 µM
- maximal inhibition [2]: 97
- IC50 [3]: 18 µM

SMILES: O=C1C(Cl)=C(NCCN2CCOCC2)C(=O)c2ncccc21
- cytotoxicity IC50 [1]: 20 µM
- maximal inhibition [2]: 104
- IC50 [3]: 16 µM

SMILES: CC[C@@H](C(=O)[C@@H](C)[C@@H](O)[C@H](C)[C@@H]1O[C@@H]([C@@H](CC)C(=O)O)CC[C@@H]1C)[C@H]1O[C@]2(C=C[C@@H](O)[C@]3(CC[C@@](C)([C@H]4CC[C@](O)(CC)[C@H](C)O4)O3)O2)[C@H](C)C[C@@H]1C
- cytotoxicity IC50 [1]: 27 µM
- maximal inhibition [2]: 106
- IC50 [3]: 17 µM

SMILES: O=C(O)c1ccc2cc(-c3ccc(O)c(C45CC6CC(CC(C6)C4)C5)c3)ccc2c1
- cytotoxicity IC50 [1]: 45 µM
- maximal inhibition [2]: 97
- IC50 [3]: 1.7 µM

SMILES: CO[C@@]12[C@H](COC(N)=O)C3=C(C(=O)C(C)=C(N)C3=O)N1C[C@@H]1N[C@@H]12
- cytotoxicity IC50 [1]: 73 µM
- maximal inhibition [2]: 97
- IC50 [3]: 2.7 µM

SMILES: CC(=O)O[C@@]12CO[C@@H]1C[C@H](O)[C@@]1(C)C(=O)[C@H](O)C3=C(C)[C@@H](OC(=O)[C@H](O)[C@@H](NC(=O)OC(C)(C)C)c4ccccc4)C[C@@](O)([C@@H](OC(=O)c4ccccc4)[C@H]21)C3(C)C
- cytotoxicity IC50 [1]: > 100 µM
- maximal inhibition [2]: 66
- IC50 [3]: 50 µM

SMILES: CCCCCC(=O)O[C@]1(C(C)=O)CC[C@H]2[C@@H]3CCC4=CC(=O)CC[C@]4(C)[C@H]3CC[C@@]21C
- cytotoxicity IC50 [1]: 7.9 µM
- maximal inhibition [2]: 99
- IC50 [3]: 50 µM

SMILES: Cc1ccc(C(=O)N(CCCN)[C@@H](c2nc3cc(Cl)ccc3c(=O)n2Cc2ccccc2)C(C)C)cc1
- cytotoxicity IC50 [1]: 37 µM
- maximal inhibition [2]: 98
- IC50 [3]: 0.067 µM

SMILES: O=C1NCCN1CCN1CCC(c2cn(-c3ccc(F)cc3)c3ccc(Cl)cc23)CC1
- cytotoxicity IC50 [1]: 6.5 µM
- maximal inhibition [2]: 99
- IC50 [3]: 7.4 µM

SMILES: CCc1c2c(nc3ccc(OC(=O)N4CCC(N5CCCCC5)CC4)cc13)-c1cc3c(c(=O)n1C2)COC(=O)[C@]3(O)CC
- cytotoxicity IC50 [1]: > 100 µM
- maximal inhibition [2]: 97
- IC50 [3]: 1.6 µM

SMILES: Cc1ncc(-c2ccnc(Nc3ccc(S(C)(=O)=O)cc3)n2)n1C(C)C
- cytotoxicity IC50 [1]: > 100 µM
- maximal inhibition [2]: 99
- IC50 [3]: 9.2 µM

SMILES: Cc1nc(N)nc(N)c1-c1ccc(Cl)c(Cl)c1
- cytotoxicity IC50 [1]: 1.5 µM
- maximal inhibition [2]: 102
- IC50 [3]: 2 µM

SMILES: CN(C)c1ccc(C(=C2C=CC(=[N+](C)C)C=C2)c2ccccc2)cc1
- cytotoxicity IC50 [1]: 1.8 µM
- maximal inhibition [2]: 102
- IC50 [3]: 1.6 µM

SMILES: O=C1[C@H](Cc2ccc(O)cc2)N2C(=O)CCN(C(=O)NCc3ccccc3)[C@H]2CN1Cc1cccc2ccccc12
- cytotoxicity IC50 [1]: > 100 µM
- maximal inhibition [2]: 103
- IC50 [3]: 13 µM

SMILES: CC(C)C[C@H](NC(=O)CNC(=O)c1cc(Cl)ccc1Cl)B1OC(=O)C(CC(=O)O)(CC(=O)O)O1
- cytotoxicity IC50 [1]: 1.6 µM
- maximal inhibition [2]: 94
- IC50 [3]: 0.2 µM

SMILES: C[C@@H]1O[C@@H](O[C@H]2C[C@@H](O)[C@]3(CO)[C@H]4[C@H](O)C[C@]5(C)[C@@H]([C@@H]6COC(=O)C6)CC[C@]5(O)[C@@H]4CC[C@]3(O)C2)[C@H](O)[C@H](O)[C@H]1O
- cytotoxicity IC50 [1]: 0.85 µM
- maximal inhibition [2]: 103
- IC50 [3]: 1.5 µM

SMILES: Cn1cc(-c2[nH]c3cc(NC(=O)[C@H](N)C4CCCCC4)cc4c3c2C=NNC4=O)cn1
- cytotoxicity IC50 [1]: > 100 µM
- maximal inhibition [2]: 104
- IC50 [3]: 0.49 µM

SMILES: C[C@H](NCc1ccc2c(c1)nc(NC(=O)c1ccc(-c3cn[nH]c3)s1)n2CCc1ccccc1)C(C)(C)C
- cytotoxicity IC50 [1]: > 100 µM
- maximal inhibition [2]: 98
- IC50 [3]: 17 µM

SMILES: O=[N+]([O-])c1ccc(O)c2ncccc12
- cytotoxicity IC50 [1]: 4.7 µM
- maximal inhibition [2]: 94
- IC50 [3]: 6 µM

SMILES: CC1=C(O)C(=O)C=C2C1=CC=C1[C@@]2(C)CC[C@@]2(C)[C@@H]3C[C@](C)(C(=O)O)CC[C@]3(C)CC[C@]12C
- cytotoxicity IC50 [1]: 2.2 µM
- maximal inhibition [2]: 106
- IC50 [3]: 3.4 µM

SMILES: Nc1ncn([C@@H]2O[C@H](CO)[C@@H](O)[C@H]2O)c(=O)n1
- cytotoxicity IC50 [1]: > 100 µM
- maximal inhibition [2]: 58
- IC50 [3]: 44 µM

SMILES: CS(=O)(=O)N1CCN(Cc2cc3nc(-c4cccc5[nH]ncc45)nc(N4CCOCC4)c3s2)CC1
- cytotoxicity IC50 [1]: 70 µM
- maximal inhibition [2]: 65
- IC50 [3]: 5.6 µM

SMILES: CCCCC1C(=O)N(c2ccccc2)N(c2ccc(O)cc2)C1=O (centres undefined)
- cytotoxicity IC50 [1]: > 100 µM
- maximal inhibition [2]: 107
- IC50 [3]: 17 µM

SMILES: Nc1ccc(-c2ccc3ncc4ccc(=O)n(-c5cccc(C(F)(F)F)c5)c4c3c2)cn1
- cytotoxicity IC50 [1]: > 100 µM
- maximal inhibition [2]: 90
- IC50 [3]: 0.72 µM

SMILES: CCn1nnc2c(N3CCOCC3)nc(-c3ccc(NC(=O)Nc4ccc(C(=O)N5CCN(C)CC5)cc4)cc3)nc21
- cytotoxicity IC50 [1]: 0.65 µM
- maximal inhibition [2]: 79
- IC50 [3]: 1.6 µM

SMILES: CC[C@@H]1C(=O)N(C)c2cnc(Nc3ccc(C(=O)N[C@H]4CC[C@H](N5CCN(CC6CC6)CC5)CC4)cc3OC)nc2N1C(C)C
- cytotoxicity IC50 [1]: > 100 µM
- maximal inhibition [2]: 101
- IC50 [3]: 0.065 µM

SMILES: CC1=C(CO)C(=O)O[C@@H]([C@@H](C)[C@H]2CC[C@H]3[C@@H]4C[C@H]5O[C@]56[C@@H](O)C=CC(=O)[C@]6(C)[C@H]4CC[C@]23C)C1
- cytotoxicity IC50 [1]: 2.8 µM
- maximal inhibition [2]: 102
- IC50 [3]: 2.8 µM

SMILES: Clc1ccc(CCC(Cn2ccnc2)Sc2c(Cl)cccc2Cl)cc1 (centres undefined)
- cytotoxicity IC50 [1]: 16 µM
- maximal inhibition [2]: 97
- IC50 [3]: 39 µM

SMILES: CNC1CCC(N(Cc2cccc(-c3ccncc3)c2)C(=O)c2sc3ccccc3c2Cl)CC1 (centres undefined)
- cytotoxicity IC50 [1]: > 100 µM
- maximal inhibition [2]: 94
- IC50 [3]: 49 µM

SMILES: Nc1c2ccccc2nc2ccccc12
- cytotoxicity IC50 [1]: 100 µM
- maximal inhibition [2]: 102
- IC50 [3]: 21 µM

SMILES: CC(C)C[C@H](NC(=O)[C@@H](NC(=O)c1cccc(-c2ccccc2)n1)[C@@H](C)O)B(O)O
- cytotoxicity IC50 [1]: 0.3 µM
- maximal inhibition [2]: 95
- IC50 [3]: 0.059 µM

SMILES: COc1cc2nc(-c3cc(F)ccc3O)nc(N[C@@H]3CNC[C@H]3C(C)(C)O)c2cc1OC
- cytotoxicity IC50 [1]: 45 µM
- maximal inhibition [2]: 98
- IC50 [3]: 12 µM

SMILES: C[C@H]1O[C@@H](O[C@H]2[C@@H](O)C[C@H](O[C@H]3[C@@H](O)C[C@H](O[C@H]4CC[C@@]5(C)[C@H](CC[C@@H]6[C@@H]5C[C@@H](O)[C@]5(C)[C@@H](C7=CC(=O)OC7)CC[C@]65O)C4)O[C@@H]3C)O[C@@H]2C)C[C@H](O)[C@@H]1O
- cytotoxicity IC50 [1]: 60 µM
- maximal inhibition [2]: 104
- IC50 [3]: 0.15 µM

SMILES: COc1cc(NS(C)(=O)=O)ccc1Nc1c2ccccc2nc2ccccc12
- cytotoxicity IC50 [1]: 70 µM
- maximal inhibition [2]: 105
- IC50 [3]: 1.4 µM

SMILES: S=C(SSC(=S)N1CCCCC1)N1CCCCC1
- cytotoxicity IC50 [1]: 0.097 µM
- maximal inhibition [2]: 86
- IC50 [3]: 0.87 µM

Reference: the supplement of paper PMC8498969
